Measured values published in PubChem BioAssay (NCI).
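All cell lines were grown in 96-well plates and treated with compound for 48 hours. Here, GI50 denotes the concentration required for 50% inhibition of growth. TGI marks complete inhibition of growth.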

Key:
Assay in all cases: NCI tumour cell line growth inhibition, 48 h
[1] = system: LOX IMVI melanoma
[2] = system: SK-MEL-5 melanoma
[3] = system: ACHN renal
[4] = system: UO-31 renal
[5] = system: SF-295 CNS
[6] = system: HOP-62 NSCLC
[7] = system: K-562 leukemia
[8] = system: 786-0 renal
[9] = system: OVCAR-3 ovarian
[10] = system: SW-620 colon
[11] = system: MCF7 breast
[12] = system: SK-MEL-28 melanoma
[13] = system: T-47D breast
[14] = system: RXF 393 renal
[15] = system: OVCAR-5 ovarian
[16] = system: A549 NSCLC
[17] = system: SF-268 CNS
[18] = system: HCT-116 colon
[19] = system: DU-145 prostate
[20] = system: SN12C renal
[21] = system: SK-OV-3 ovarian
[22] = system: MDA-MB-231 breast
[23] = system: IGROV1 ovarian
[24] = system: U251 CNS
[25] = system: UACC-62 melanoma
[26] = system: SK-MEL-2 melanoma
[27] = system: CAKI-1 renal
[28] = system: SR leukemia
[29] = system: UACC-257 melanoma
[30] = system: COLO 205 colon
[31] = system: NCI-H23 lung
[32] = system: HT29 colon
[33] = system: HS 578T breast
[34] = system: RPMI-8226 leukemia
[35] = system: MDA-MB-435
[36] = system: M14 melanoma
[37] = system: NCI/ADR-RES ovarian
[38] = system: A498 renal
[39] = system: OVCAR-8 ovarian
[40] = system: PC-3 prostate
[41] = system: TK-10 renal
[42] = system: SNB-75 CNS
[43] = system: SF-539 CNS
[44] = system: OVCAR-4 ovarian
[45] = system: HL-60(TB) leukemia
[46] = system: HCT-15 colon
[47] = system: NCI-H226 lung
[48] = system: HCC-2998 colon
[49] = system: MALME-3M melanoma
[50] = system: CCRF-CEM leukemia
[51] = system: HOP-92 NSCLC
[52] = system: KM12 colon
[53] = system: NCI-H522 lung
[54] = system: EKVX NSCLC
[55] = system: MOLT-4 leukemia
[56] = system: BT-549 breast
[57] = system: NCI-H460 lung

## OCCNc1nc(NCCO)nc(Nc2ccc(C3=NN(c4cc(Cl)cc(Cl)c4)C(c4ccc(C(F)(F)F)cc4)C3)cc2)n1 (stereo not given)
[1]
  GI50: 1560 nM
  TGI: 2970 nM
[2]
  GI50: 1720 nM
  TGI: 3110 nM
[3]
  GI50: 1370 nM
  TGI: 2660 nM
[4]
  GI50: 1550 nM
  TGI: 2920 nM
[5]
  GI50: 1360 nM
  TGI: 2710 nM

## N#CSCC1CC(O)(c2ccccc2)C(c2ccccc2)C(c2ccc(Cl)cc2)O1 (stereo not given)
[6]
  GI50: 2080 nM
  TGI: 3960 nM
[7]
  GI50: 1370 nM
  TGI: 5420 nM
[8]
  GI50: 1740 nM
  TGI: 3280 nM
[9]
  GI50: 782 nM
  TGI: 2290 nM
[10]
  GI50: 1630 nM
  TGI: 3930 nM
[11]
  GI50: 1270 nM
  TGI: 3210 nM
[12]
  GI50: 1970 nM
  TGI: 4500 nM
[13]
  GI50: 1070 nM
  TGI: 3530 nM
[14]
  GI50: 1620 nM
  TGI: 3240 nM
[15]
  GI50: 2130 nM
  TGI: 3860 nM
[16]
  GI50: 1780 nM
  TGI: 4240 nM
[17]
  GI50: 1670 nM
  TGI: 4740 nM
[18]
  GI50: 569 nM
  TGI: 1990 nM
[19]
  GI50: 2020 nM
  TGI: 4670 nM
[20]
  GI50: 1410 nM
  TGI: 2910 nM
[21]
  GI50: 2680 nM
  TGI: 6210 nM
[22]
  GI50: 1800 nM
  TGI: 4790 nM
[1]
  GI50: 1580 nM
  TGI: 2970 nM
[2]
  GI50: 1630 nM
  TGI: 2980 nM
[23]
  GI50: 2000 nM
  TGI: 3740 nM
[24]
  GI50: 1580 nM
  TGI: 3120 nM
[25]
  GI50: 1410 nM
  TGI: 2810 nM
[3]
  GI50: 1600 nM
  TGI: 3020 nM
[26]
  GI50: 2330 nM
  TGI: 4370 nM
[27]
  GI50: 1670 nM
  TGI: 4140 nM
[4]
  GI50: 1330 nM
  TGI: 2680 nM
[28]
  GI50: 1900 nM
  TGI: 4950 nM
[29]
  GI50: 1610 nM
  TGI: 3390 nM
[30]
  GI50: 1460 nM
  TGI: 2840 nM
[31]
  GI50: 1570 nM
  TGI: 3030 nM
[32]
  GI50: 1020 nM
  TGI: 2450 nM
[33]
  GI50: 3220 nM
  TGI: 81000 nM
[34]
  GI50: 1440 nM
  TGI: 4680 nM
[35]
  GI50: 1400 nM
  TGI: 2880 nM
[36]
  GI50: 1530 nM
  TGI: 3150 nM
[37]
  GI50: 1670 nM
  TGI: 3430 nM
[38]
  GI50: 2160 nM
  TGI: 5630 nM
[39]
  GI50: 1780 nM
  TGI: 3830 nM
[5]
  GI50: 1750 nM
  TGI: 4220 nM
[40]
  GI50: 1850 nM
  TGI: 4980 nM
[41]
  GI50: 2010 nM
  TGI: 4200 nM
[42]
  GI50: 1550 nM
  TGI: 4280 nM
[43]
  GI50: 1760 nM
  TGI: 3170 nM
[44]
  GI50: 1220 nM
  TGI: 2530 nM
[45]
  GI50: 1550 nM
  TGI: 5770 nM
[46]
  GI50: 1430 nM
  TGI: 3380 nM
[47]
  GI50: 2270 nM
  TGI: 4620 nM
[48]
  GI50: 1840 nM
  TGI: 3350 nM
[49]
  GI50: 1520 nM
  TGI: 3020 nM

## C=CCN1C(=O)/C(=C/c2ccccc2)N=C1SC1OC(COC(=O)c2ccccc2)C(OC(=O)c2ccccc2)C1OC(=O)c1ccccc1 (stereo not given)
[6]
  TGI: > 100000 nM
[7]
  TGI: > 100000 nM
[9]
  TGI: > 100000 nM
[10]
  TGI: > 100000 nM
[11]
  TGI: > 100000 nM
[12]
  TGI: > 100000 nM
[14]
  TGI: > 100000 nM
[15]
  TGI: > 100000 nM
[19]
  TGI: > 100000 nM
[50]
  TGI: 70400 nM
[21]
  TGI: > 100000 nM
[22]
  TGI: > 100000 nM
[1]
  TGI: > 100000 nM
[2]
  TGI: > 100000 nM
[51]
  TGI: > 100000 nM
[23]
  TGI: > 100000 nM
[24]
  TGI: > 100000 nM
[25]
  TGI: > 100000 nM
[3]
  TGI: > 100000 nM
[52]
  TGI: > 100000 nM
[26]
  TGI: > 100000 nM
[27]
  TGI: > 100000 nM
[53]
  TGI: 41500 nM
[54]
  TGI: > 100000 nM
[28]
  TGI: > 100000 nM
[29]
  TGI: > 100000 nM
[30]
  TGI: > 100000 nM
[55]
  TGI: > 100000 nM
[31]
  TGI: > 100000 nM
[34]
  TGI: 87900 nM
[35]
  TGI: > 100000 nM
[37]
  TGI: > 100000 nM
[38]
  TGI: > 100000 nM
[39]
  TGI: > 100000 nM
[5]
  TGI: > 100000 nM
[40]
  TGI: > 100000 nM
[41]
  TGI: > 100000 nM
[42]
  TGI: > 100000 nM
[43]
  TGI: > 100000 nM
[44]
  TGI: > 100000 nM
[56]
  TGI: > 100000 nM
[45]
  TGI: > 100000 nM
[46]
  TGI: > 100000 nM
[47]
  TGI: > 100000 nM
[48]
  TGI: > 100000 nM
[57]
  TGI: > 100000 nM
[49]
  TGI: > 100000 nM
